# Measured values taken from patent US6326466A, “Double-stranded RNA dependent protein kinase derived peptides to promote proliferation of cells and tissues in a controlled manner” (priority 1999, dated 2001).
# Ends that are not written are not given here.
# What was measured:
# [1] = test system: 3T3442A cells; type: cell-based; conditions: one hour at 37EC
# Experimental: A PKR peptide antagonist (50 μg) having the sequence […] (SEQ ID NO: 25) comprising a cell permeability subsequence (residues 1-16 of SEQ ID NO:25), a heme agglutinin-epitope tag subsequence (residues 17-25 of SEQ ID NO:25), and a PKR peptide antagonist subsequence (residues 26-46 of SEQ ID NO:25) was radiolabeled with [^125 I]-iodine by the chloramine-T method (Hunter, W. M. and Greenwood, F. C. Nature 194:495-496, 1962) and purified by size exclusion chromatography using BioGel P2 (BioRad, Inc.) 35 million CPM of radiolabeled PKR peptide was added to pre-confluent cultures of 3T3442A cells grown in medium containing 10% FBS. After 1 hour at 37° C., the media was aspirated and the cells were washed four times in phosphate buffered saline (PBS). Cells were removed from the culture dishes by scraping and collected by centrifugation (4EC, 750×g, 5 min). The wash buffer was removed and the cell pellet was dissolved in SDS-polyacrylamide gel buffer (Laemmli, Nature (London), 227:680-685, 1970). The sample was analyzed by SDS-tricine polyacrylamide gel electrophoresis using 4-20% gradient tricine-SDS gels and the radiolabeled peptide antagonist was visualized by autoradiography of dried gels. […]
# The subcellular localization of the PKR peptide antagonist (SEQ ID NO:25) that had been internalized by 3T3442A cells was determined by confocal microscopy. […]
# [2] = target: T1, PKR (dsRNA-dependent protein kinase) (Oryctolagus cuniculus) (UniProt Q287T5); assay: competition; conditions: unlabeled poly(I)-poly(C) 80 ug/ml as competitor to TAR RNA
# T1 sequence: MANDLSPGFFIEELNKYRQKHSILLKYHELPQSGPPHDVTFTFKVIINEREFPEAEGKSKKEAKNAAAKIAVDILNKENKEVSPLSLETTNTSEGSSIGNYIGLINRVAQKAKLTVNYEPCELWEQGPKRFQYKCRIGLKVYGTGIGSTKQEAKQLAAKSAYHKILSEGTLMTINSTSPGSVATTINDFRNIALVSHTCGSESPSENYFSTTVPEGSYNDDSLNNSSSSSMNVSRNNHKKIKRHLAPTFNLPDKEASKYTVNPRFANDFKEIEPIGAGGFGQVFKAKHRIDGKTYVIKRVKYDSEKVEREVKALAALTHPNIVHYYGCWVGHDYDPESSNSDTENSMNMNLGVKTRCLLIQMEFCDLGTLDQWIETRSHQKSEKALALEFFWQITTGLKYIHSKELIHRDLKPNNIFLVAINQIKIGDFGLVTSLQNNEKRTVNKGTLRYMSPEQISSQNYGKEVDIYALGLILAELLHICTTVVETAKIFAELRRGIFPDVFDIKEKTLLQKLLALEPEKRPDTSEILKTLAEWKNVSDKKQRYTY
Substance,"subcellular localization of internalized peptide (confocal microscopy, anti-HA) [1]",binding signal (% inhibition of TAR complex) [2]
AAVALLPAVLLALLAPYPYDVPDYAKKEAKNAAAKLAVEILNKEKK [SEQ ID NO:25],"obvious, intense localization of the epitope-tagged peptide to the cell cytoplasm",–
poly(I)-poly(C),–,60
